The source of these data is patent publication US20230121086A1, “RORgT INHIBITOR, PREPARATION METHOD THEREOF AND USE THEREOF” (SUNSHINE LAKE PHARMA CO., LTD., priority 2020, published 2023).

The target in the experiment is T1, RORγt (Homo sapiens, UniProt P51449).
T1 construct: […]
T1 sequence (P51449 269-508 limits assumed): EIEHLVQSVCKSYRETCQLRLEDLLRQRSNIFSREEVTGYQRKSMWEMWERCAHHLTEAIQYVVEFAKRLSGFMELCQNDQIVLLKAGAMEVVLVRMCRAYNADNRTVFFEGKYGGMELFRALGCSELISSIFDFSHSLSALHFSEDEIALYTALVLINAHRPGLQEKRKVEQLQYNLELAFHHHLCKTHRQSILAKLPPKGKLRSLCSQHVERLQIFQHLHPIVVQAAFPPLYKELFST
Put plainly: Fluorescence resonance energy transfer (FRET) test, inhibitory activity of RORγt. The format is biochemical. The note with it: FRET, B-RORγt LBD / Biotin-SRC1; read-out: IC50.

For the compound `CCS(=O)(=O)c1ccc([C@H](CC#N)NC(=O)c2ccc(N3CCC(Oc4ccc(C(F)(F)F)cc4)C3)c(F)c2)cc1` (stereo in doubt) [Example 83, N-((S)-2-cyano-1-(4-(ethylsulfonyl)phenyl)ethyl)-3-fluoro-4-((S)-3-(4-(trifluoromethyl)phenoxy)pyrrolidin-1-yl)benzamide], the half-inhibitory concentration (IC50) came out at 91 nM.

On to `CCS(=O)(=O)c1ccc([C@H](CC#N)NC(=O)c2ccc(N3C[C@H](N4CCC(C(F)(F)F)CC4)CC[C@H]3COC(F)F)cc2)cc1` [Example 117-2, N—((S)-2-cyano-1-(4-(ethylsulfonyl)phenyl)ethyl)-4-((3′R,6′S)-6′-((difluoromethoxy)methyl)-4-(trifluoromethyl)-(1,3′-bipiperidin)-1′-yl)benzamide], for which the IC50 is 26 nM.

With `CCS(=O)(=O)c1ccc([C@H](CC#N)NC(=O)c2ccc(N3C[C@@H](Oc4ccc(OC(F)F)nc4)C[C@H]3COC(F)F)cc2)cc1` [Example 9, N-((S)-2-cyano-1-(4-(ethylsulfonyl)phenyl)ethyl)-4-((2S,4S)-2-((difluoromethoxy)methyl)-4-((6-(difluoromethoxy)pyridin-3-yl)oxy)pyrrolidin-1-yl)benzamide], the half-inhibitory concentration (IC50) was 25.8 nM.

Regarding `CCS(=O)(=O)c1ccc([C@H](CC#N)NC(=O)c2ccc(N3C[C@@H](Oc4ccc(N)cc4)C[C@H]3COC(F)F)cc2)cc1` [Example 7, 4-((2S,4S)-4-(4-aminophenoxy)-2-((difluoromethoxy)methyl)pyrrolidin-1-yl)-N-((S)-2-cyano-1-(4-(ethylsulfonyl)phenyl)ethyl)benzamide], the half-maximal inhibitory concentration (IC50) was determined as 57.5 nM.

`CCS(=O)(=O)c1ccc([C@@H](NC(=O)c2ccc(N3C[C@@H](Oc4ccc(C(F)(F)F)cc4)C[C@H]3COC(F)F)cc2)C(=O)O)cc1` [Example 102, (R)-2-(4-((2S,4S)-2-((difluoromethoxy)methyl)-4-(4-(trifluoromethyl)phenoxy)pyrrolidin-1-yl)benzoylamino)-2-(4-(ethylsulfonyl)phenyl)acetic Acid]: the half-inhibitory concentration (IC50) worked out at 4 nM.

With `CCS(=O)(=O)c1ccc([C@H](CC#N)NC(=O)c2ccc(C(O)(C(F)(F)F)C(F)(F)F)cc2)cc1` [Example 143, (S)—N-(2-cyano-1-(4-(ethylsulfonyl)phenyl)ethyl)-4-(1,1,1,3,3,3-hexafluoro-2-hydroxypropan-2-yl)benzamide], the IC50 turned out to be 104 nM.

In the case of `CCS(=O)(=O)c1ccc([C@H](CCC#N)NC(=O)c2ccc(N3CC(Oc4ccc(C(F)(F)F)cc4)C[C@H]3COC(F)F)cc2)cc1` (stereo in doubt) [Example 51, N-((S)-3-cyano-1-(4-(ethylsulfonyl)phenyl)propyl)-4-((2S,4S)-2-((difluoromethoxy)methyl)-4-(4-(trifluoromethyl)phenoxy)pyrrolidin-1-yl)benzamide], the half-maximal inhibitory concentration (IC50) was found to be 14 nM.

Turning to `CCS(=O)(=O)c1ccc([C@H](CC#N)NC(=O)c2ccc(N3C[C@@H](Oc4ccc(C(F)(F)F)cc4)C[C@H]3COC(F)F)c(Cl)c2)cc1` [Example 66, 3-chloro-N-((S)-2-cyano-1-(4-(ethylsulfonyl)phenyl)ethyl)-4-((2S,4S)-2-((difluoromethoxy)methyl)-4-(4-(trifluoromethyl)phenoxy)pyrrolidin-1-yl)benzamide], the IC50 came out at 33 nM.

Consider `CCS(=O)(=O)c1ccc([C@H](CC#N)NC(=O)c2ccc(N3C[C@@H](Oc4ccc(OC(F)F)cc4)C[C@H]3COC(F)F)cc2)nc1` [Example 13, N-((S)-2-cyano-1-(5-(ethylsulfonyl)pyridin-2-yl)ethyl)-4-((2S,4S)-2-((difluoromethoxy)methyl)-4-(4-(difluoromethoxy)phenoxy)pyrrolidin-1-yl)benzamide], for which the half-inhibitory concentration (IC50) came out at 31.4 nM.

Consider “N—((S)-2-cyano-1-(4-(ethylsulfonyl)phenyl)ethyl)-4-((2S,4S)-2-((difluoromethoxy)methyl)-4-(4-(4-fluoro-1H-pyrazol-1-yl)phenoxy)pyrrolidin-1-yl) benzamide [Example 161]”, for which the IC50 was 10.4 nM.

Consider `CCS(=O)(=O)c1ccc([C@H](CC#N)NC(=O)c2ccc(N3C[C@@H](Oc4ccc(-n5ccc(C)n5)cc4)C[C@H]3COC(F)F)cc2)cc1` [Example 163, N—((S)-2-cyano-1-(4-(ethylsulfonyl)phenyl)ethyl)-4-((2S,4S)-2-((difluoromethoxy)methyl)-4-(4-(3-methyl-1H-pyrazol-1-yl)phenoxy)pyrrolidin-1-yl) benzamide], for which the concentration for half-maximal inhibition (IC50) was 5.1 nM.

For `CCS(=O)(=O)c1ccc([C@H](CC#N)NC(=O)c2ccc(N3C[C@H](NCC4CCC(F)(F)CC4)C[C@H]3COC(F)F)cc2)cc1` [Example 31], the IC50 stood at 59.8 nM.

As to `CCS(=O)(=O)c1ccc([C@H](CC#N)NC(=O)c2ccc(N3C[C@@H](Oc4ccc(C5CC5)cn4)C[C@H]3COC(F)F)cc2)cc1` [Example 40, N—((S)-2-cyano-1-(4-(ethylsulfonyl)phenyl)ethyl)-4-((2S,4S)-4-((5-cyclopropylpyridin-2-yl)oxy)-2-((difluoromethoxy)methyl)pyrrolidin-1-yl)benzamide], the IC50 was found to be 21 nM.

For `CCS(=O)(=O)c1ccc([C@@H](CC#N)NC(=O)c2ccc(N3C[C@@H](c4ccc(C(F)(F)F)cc4)CC[C@H]3COCC3CC3)cc2)cc1` [Example 109-1, N—((R)-2-cyano-1-(4-(ethylsulfonyl)phenyl)ethyl)-4-((2S,5R)-2-((cyclopropylmethoxy)methyl)-5-(4-(trifluoromethyl)phenyl)piperidin-1-yl)benzamide], the 50% inhibitory concentration (IC50) stood at 7 nM.

`CCS(=O)(=O)c1ccc([C@H](CC#N)NC(=O)c2ccc(N3CC(Oc4ccc(OC)cc4)C[C@H]3COC(F)F)cc2)cc1` (stereo in doubt) [Example 63, N-((S)-2-cyano-1-(4-(ethylsulfonyl)phenyl)ethyl)-4-((2S,4S)-2-((difluoromethoxy)methyl)-4-(4-methoxyphenoxy)pyrrolidin-1-yl)benzamide]: the 50% inhibitory concentration (IC50) was found to be 7 nM.

Consider `CCS(=O)(=O)c1ccc([C@H](CC(=O)NO)NC(=O)c2ccc(N3C[C@@H](Oc4ccc(C(F)(F)F)cc4)C[C@H]3COC(F)F)cc2)cc1` [Example 93], for which the IC50 amounted to 13 nM.

Take `CCS(=O)(=O)c1ccc([C@H](CC(=O)O)NC(=O)c2ccc(N3C[C@@H](Oc4ccc(-n5cccn5)cn4)C[C@H]3COC(F)F)cc2)cc1` [Example 172, (S)-3-(4-((2S,4S)-4-((5-(1H-pyrazol-1-yl)pyridine-2-yl)oxy)-2-((difluoromethoxy)methyl)pyrrolidin-1-yl)benzamido)-3-(4-(ethylsulfonyl)phenyl)propionic Acid]: the IC50 was found to be 23.5 nM.

As for `CCS(=O)(=O)c1ccc([C@H](CC#N)NC(=O)c2ccc(N3C[C@@H](Oc4ccc(C(F)(F)F)cc4)C[C@H]3CCOC(F)(F)F)cc2)cc1` [Example 76, N—((S)-2-cyano-1-(4-(ethylsulfonyl)phenyl)ethyl)-4-((2R,4S)-2-(2-(trifluoromethoxy)ethyl)-4-(4-(trifluoromethyl)phenoxy)pyrrolidin-1-yl)benzamide], the half-inhibitory concentration (IC50) is 18 nM.

For the compound `CCS(=O)(=O)c1ccc([C@@H](CC#N)NC(=O)c2ccc(N3C[C@@H](Oc4ccc(OC(F)F)cc4)C[C@H]3COC(F)F)cc2)cc1` [Example 12, N-((R)-2-cyano-1-(4-(ethylsulfonyl)phenyl)ethyl)-4-((2S,4S)-2-((difluoromethoxy)methyl)-4-(4-(difluoromethoxy)phenoxy)pyrrolidin-1-yl)benzamide], the half-maximal inhibitory concentration (IC50) was determined as 21.5 nM.

As to `CCC(F)(F)OC[C@@H]1CC[C@H](c2ccc(C(F)(F)F)cc2)CN1c1ccc(C(=O)N[C@H](CC#N)c2ccc(S(=O)(=O)CC)cc2)cc1` [Example 110-1, N—((R)-2-cyano-1-(4-(ethylsulfonyl)phenyl)ethyl)-4-((2S,5R)-2-((1,1-difluoropropoxy)methyl)-5-(4-(trifluoromethyl)phenyl)piperidin-1-yl)benzamide], the IC50 is 19 nM.

Turning to `CCS(=O)(=O)c1ccc([C@H](CCCC(=O)O)NC(=O)c2ccc(N3C[C@@H](Oc4ccc(C(F)(F)F)cc4)C[C@H]3COC(F)F)cc2)cc1` [Example 106, (S)-5-(4-((2S,4S)-2-((difluoromethoxy)methyl)-4-(4-(trifluoromethyl)phenoxy)pyrrolidin-1-yl)benzoylamino)-5-(4-(ethylsulfonyl)phenyl)valeric Acid], the IC50 is 52 nM.

As for `CCS(=O)(=O)c1ccc([C@H](CC#N)NC(=O)c2ccc(N3C[C@H](N(C)CC4CCC(F)(F)CC4)C[C@H]3COC(F)F)cc2)cc1` [Example 32], the half-maximal inhibitory concentration (IC50) was 61.1 nM.

For `CCS(=O)(=O)c1ccc([C@H](CC(=O)NC)NC(=O)c2ccc(N3C[C@@H](Oc4ccc(C(F)(F)F)cc4)C[C@H]3COC(F)F)cc2)cc1` [Example 94], the 50% inhibitory concentration (IC50) came to 31 nM.

Take `CCS(=O)(=O)c1ccc([C@H](CC#N)NC(=O)c2ccc(N3C[C@@H](Oc4ccc(-n5cccn5)cc4)C[C@H]3COC(F)F)cc2)cc1` [Example 152, 4-((2S,4S)-4-(4-(1H-pyrazol-1-yl)phenoxy)-2-((difluoromethoxy)methyl)pyrrolidin-1-yl)-N—((S)-2-cyano-1-(4-(ethylsulfonyl)phenyl)ethyl)benzamide]: the IC50 was 13.2 nM.

As to `CCS(=O)(=O)c1ccc([C@H](CC#N)NC(=O)c2ccc(N3CC(Oc4ccc(C(F)(F)F)cc4)C[C@H]3COC(F)F)cc2F)cc1` (stereo in doubt) [Example 59, N-((S)-2-cyano-1-(4-(ethylsulfonyl)phenyl)ethyl)-4-((2S,4S)-2-((difluoromethoxy)methyl)-4-(4-(trifluoromethyl)phenoxy)pyrrolidin-1-yl)-2-fluorobenzamide], the half-maximal inhibitory concentration (IC50) came to 47 nM.

With `CCS(=O)(=O)c1ccc([C@H](COC(N)=O)NC(=O)c2ccc(N3C[C@@H](Oc4ccc(OC(F)(F)F)cn4)C[C@H]3CF)nc2)cc1` [Example 176, (R)-2-(4-(Ethylsulfonyl)phenyl)-2-(6-((2S,4S)-2-(fluoromethyl)-4-((5-(trifluoromethoxy)pyridin-2-yl)oxy)pyrrolidin-1-yl)nicotinamido)ethyl carbamate], the IC50 came to 7.3 nM.

As usually defined, the IC50 is the concentration that inhibits the measured activity by half.
